{
  "source": "patent US10092003B2",
  "about": "“Insect control device and associated methods” (Novel Textiles & Treatments LLC, priority 2014, dated 2018)",
  "experiment": "Transfluthrin evaporation / release rate from loaded fabric substrates (aging, acetone extraction, GC-MS)",
  "format": "physicochemical",
  "excerpt": "In some cases, release rates of the pyrethroids may range between about 0.1 milligrams per hour and about 3 milligrams per hour, as measured by gas chromatography mass spectroscopy (GC-MS). In some embodiments, the release rate may range between about 0.1 milligrams per hour and about 3 milligrams per hour, between about 0.5 milligrams per hour and about 3 milligrams per hour, or between about 1 milligrams per hour and about 3 milligrams per hour for an overall device of the invention, as measured by GC-MS. Other release rates are also possible. The release rate of the pyrethroid may be determined, for example, by immersing a loaded substrate in a suitable solvent (e.g., acetone) and sonicating. The substrate may then be rinsed and the solvent containing the released pyrethroid is collected. […]\nFabric samples comprised of cellulose or glass were prepared with Transfluthrin using either a wet application, or a wet application followed by a dry application, as described herein. […] The amount of Transfluthrin in the extracted sample was measured using a Restel Rtx®-5MS gas chromatography—mass spectrometry column. […] Evaporation rates, as determined by solvent extraction of Transfluthrin and followed by GC-MS as described previously, for cellulose fabric wet application and wet-and-dry application samples (Samples A and B in Table 1) are plotted in FIG. 3A and FIG. 3B, respectively. […]",
  "data": [
    {"smiles": "CC1(C)[C@H](C=C(Cl)Cl)[C@H]1C(=O)OCc1c(F)c(F)cc(F)c1F", "note": "[transfluthrin, Transfluthrin]", "values": [
      {"measurement": "evaporation rate", "setting": "combination of particle size distributions on 5″×4″ square fabric of cellulose", "result": 0.5, "unit": "mg per 21 days"},
      {"measurement": "evaporation rate", "setting": "on an equivalent 20″×20″ cellulose fabric", "result": 10, "unit": "mg per 21 days"}
    ]}
  ]
}
